Results published in ChEMBL document CHEMBL5537158, “Polymyxins with Potent Antibacterial Activity against Colistin-Resistant Pathogens: Fine-Tuning Hydrophobicity with Unnatural Amino Acids” (J Med Chem, 2024).
In brackets after ≈: the same amount, converted by molar mass. Positions of bridges follow the written chain, without caps; N, C: chain ends. Non-standard residues stand in square brackets, D forms with d. Residues, ends and D or L forms follow the SMILES beside them. *: point of attachment. dPhe(4-CF3) = N[C@H](Cc1ccc(C(F)(F)F)cc1)C(=O)O; dPhe(F5) = N[C@H](Cc1c(F)c(F)c(F)c(F)c1F)C(=O)O; Benzoyl(4-Ph) = O=C(c1ccc(-c2ccccc2)cc1)*; Phe(4-F) = N[C@@H](Cc1ccc(F)cc1)C(=O)O; dPhe(3-F) = N[C@H](Cc1cccc(F)c1)C(=O)O; dPhe(4-F) = N[C@H](Cc1ccc(F)cc1)C(=O)O; dPhe(2-F) = N[C@H](Cc1ccccc1F)C(=O)O; hhPhe = N[C@@H](CCCc1ccccc1)C(=O)O; Octanoyl = CCCCCCCC(=O)*; Dab = NCC[C@H](N)C(=O)O

Assays:
[1] = tested on: Pseudomonas aeruginosa; test: Antimicrobial activity against colistin resistant Pseudomonas aeruginosa 7197/19 assessed as bacterial growth inhibition incubated for 20 hrs by broth microdilution method; type: functional
[2] = tested on: Pseudomonas aeruginosa; test: Antimicrobial activity against Pseudomonas aeruginosa PAO1 assessed as bacterial growth inhibition incubated for 20 hrs by broth microdilution method; type: functional
[3] = tested on: Acinetobacter baumannii; test: Antimicrobial activity against colistin resistant Acinetobacter baumannii ATCC 3658/17 assessed as bacterial growth inhibition incubated for 20 hrs by broth microdilution method; type: functional
[4] = tested on: Acinetobacter baumannii; test: Antimicrobial activity against Acinetobacter baumannii ATCC 19606 assessed as bacterial growth inhibition incubated for 20 hrs by broth microdilution method; type: functional
[5] = tested on: Escherichia coli; test: Antimicrobial activity against […] Escherichia coli harboring mcr-1 assessed as bacterial growth inhibition incubated for 20 hrs by broth microdilution method; type: functional
[6] = tested on: Escherichia coli; test: Antibacterial activity against Escherichia coli ATCC 25922 assessed as bacterial growth inhibition incubated for 20 hrs by broth microdilution method; type: functional
[7] = Hemolytic activity in human RBC at 400 ug/ml after 1 hr; type: toxicity, cell-based, Erythrocyte; conditions: red blood cells (erythrocytes), at 400 µg/mL, read-out: Activity

Compound	MIC [1]	MIC [2]	MIC [3]	MIC [4]	MIC [5]	MIC [6]	hemolysis at 1 h, 400 ug/ml [7]
CCCCCCCC(=O)N[C@@H](CCN)C(=O)N[C@H](C(=O)N[C@@H](CCN)C(=O)N[C@H]1CCNC(=O)[C@H]([C@@H](C)O)NC(=O)[C@H](CCN)NC(=O)[C@H](CCN)NC(=O)[C@H](Cc2ccc(F)cc2)NC(=O)[C@@H](CC(C)C)NC(=O)[C@H](CCN)NC1=O)[C@@H](C)O (Octanoyl-[Dab]T[Dab][Dab][Dab][dL][Phe(4-F)][Dab][Dab]T; lactam 4-C)	32 µg/mL (≈ 26.5 µM)	0.125 µg/mL (≈ 0.104 µM)	16 µg/mL (≈ 13.3 µM)	0.25 µg/mL (≈ 0.207 µM)	2 µg/mL (≈ 1.66 µM)		
CCCCCCCC(=O)N[C@@H](CCN)C(=O)N[C@H](C(=O)N[C@@H](CCN)C(=O)N[C@H]1CCNC(=O)[C@H]([C@@H](C)O)NC(=O)[C@H](CCN)NC(=O)[C@H](CCN)NC(=O)[C@H](CCCc2ccccc2)NC(=O)[C@@H](CC(C)C)NC(=O)[C@H](CCN)NC1=O)[C@@H](C)O (Octanoyl-[Dab]T[Dab][Dab][Dab][dL][hhPhe][Dab][Dab]T; lactam 4-C)	0.5 µg/mL (≈ 0.411 µM)	0.5 µg/mL (≈ 0.411 µM)	0.5 µg/mL (≈ 0.411 µM)	< 0.125 µg/mL	1 µg/mL (≈ 0.821 µM)	0.5 µg/mL (≈ 0.411 µM)	
CCCCCCCC(=O)N[C@@H](CCN)C(=O)N[C@H](C(=O)N[C@@H](CCN)C(=O)N[C@H]1CCNC(=O)[C@H]([C@@H](C)O)NC(=O)[C@H](CCN)NC(=O)[C@H](CCN)NC(=O)[C@H](CC(C)C)NC(=O)[C@@H](Cc2ccccc2F)NC(=O)[C@H](CCN)NC1=O)[C@@H](C)O (Octanoyl-[Dab]T[Dab][Dab][Dab][dPhe(2-F)]L[Dab][Dab]T; lactam 4-C)			0.5 µg/mL (≈ 0.414 µM)	0.06 µg/mL (≈ 0.0497 µM)		0.123 µg/mL (≈ 0.102 µM)	
CCCCCCCC(=O)N[C@@H](CCN)C(=O)N[C@H](C(=O)N[C@@H](CCN)C(=O)N[C@H]1CCNC(=O)[C@H]([C@@H](C)O)NC(=O)[C@H](CCN)NC(=O)[C@H](CCN)NC(=O)[C@H](CC(C)C)NC(=O)[C@@H](Cc2cccc(F)c2)NC(=O)[C@H](CCN)NC1=O)[C@@H](C)O (Octanoyl-[Dab]T[Dab][Dab][Dab][dPhe(3-F)]L[Dab][Dab]T; lactam 4-C)		0.25 µg/mL (≈ 0.207 µM)	4 µg/mL (≈ 3.31 µM)	0.25 µg/mL (≈ 0.207 µM)			
CCCCCCCC(=O)N[C@@H](CCN)C(=O)N[C@H](C(=O)N[C@@H](CCN)C(=O)N[C@H]1CCNC(=O)[C@H]([C@@H](C)O)NC(=O)[C@H](CCN)NC(=O)[C@H](CCN)NC(=O)[C@H](CC(C)C)NC(=O)[C@@H](Cc2ccc(C(F)(F)F)cc2)NC(=O)[C@H](CCN)NC1=O)[C@@H](C)O (Octanoyl-[Dab]T[Dab][Dab][Dab][dPhe(4-CF3)]L[Dab][Dab]T; lactam 4-C)	0.25 µg/mL (≈ 0.199 µM)		0.5 µg/mL (≈ 0.398 µM)	0.25 µg/mL (≈ 0.199 µM)	1 µg/mL (≈ 0.795 µM)	0.25 µg/mL (≈ 0.199 µM)	
CCCCCCCC(=O)N[C@@H](CCN)C(=O)N[C@H](C(=O)N[C@@H](CCN)C(=O)N[C@H]1CCNC(=O)[C@H]([C@@H](C)O)NC(=O)[C@H](CCN)NC(=O)[C@H](CCN)NC(=O)[C@H](CC(C)C)NC(=O)[C@@H](Cc2ccc(F)cc2)NC(=O)[C@H](CCN)NC1=O)[C@@H](C)O (Octanoyl-[Dab]T[Dab][Dab][Dab][dPhe(4-F)]L[Dab][Dab]T; lactam 4-C) [listing 1 of 2 here]							< 10%
CCCCCCCC(=O)N[C@@H](CCN)C(=O)N[C@H](C(=O)N[C@@H](CCN)C(=O)N[C@H]1CCNC(=O)[C@H]([C@@H](C)O)NC(=O)[C@H](CCN)NC(=O)[C@H](CCN)NC(=O)[C@H](CC(C)C)NC(=O)[C@@H](Cc2ccc(F)cc2)NC(=O)[C@H](CCN)NC1=O)[C@@H](C)O (Octanoyl-[Dab]T[Dab][Dab][Dab][dPhe(4-F)]L[Dab][Dab]T; lactam 4-C) [listing 2 of 2 here]			0.25 µg/mL (≈ 0.207 µM)	0.06 µg/mL (≈ 0.0497 µM)	2 µg/mL (≈ 1.66 µM)	0.03 µg/mL (≈ 0.0248 µM)	
CCCCCCCC(=O)N[C@@H](CCN)C(=O)N[C@H](C(=O)N[C@@H](CCN)C(=O)N[C@H]1CCNC(=O)[C@H]([C@@H](C)O)NC(=O)[C@H](CCN)NC(=O)[C@H](CCN)NC(=O)[C@H](CC(C)C)NC(=O)[C@@H](Cc2c(F)c(F)c(F)c(F)c2F)NC(=O)[C@H](CCN)NC1=O)[C@@H](C)O (Octanoyl-[Dab]T[Dab][Dab][Dab][dPhe(F5)]L[Dab][Dab]T; lactam 4-C) [listing 1 of 2 here]							< 10%
CCCCCCCC(=O)N[C@@H](CCN)C(=O)N[C@H](C(=O)N[C@@H](CCN)C(=O)N[C@H]1CCNC(=O)[C@H]([C@@H](C)O)NC(=O)[C@H](CCN)NC(=O)[C@H](CCN)NC(=O)[C@H](CC(C)C)NC(=O)[C@@H](Cc2c(F)c(F)c(F)c(F)c2F)NC(=O)[C@H](CCN)NC1=O)[C@@H](C)O (Octanoyl-[Dab]T[Dab][Dab][Dab][dPhe(F5)]L[Dab][Dab]T; lactam 4-C) [listing 2 of 2 here]		0.25 µg/mL (≈ 0.195 µM)	0.5 µg/mL (≈ 0.391 µM)	< 0.125 µg/mL		< 0.125 µg/mL	
CC[C@H](C)[C@@H]1NC(=O)[C@@H](CC(C)C)NC(=O)[C@H](CCN)NC(=O)[C@@H](NC(=O)[C@@H](CO)NC(=O)[C@@H](NC(=O)[C@H](CCN)NC(=O)c2ccc(-c3ccccc3)cc2)[C@@H](C)O)CCNC(=O)[C@H](CC(C)C)NC(=O)[C@H](CCN)NC(=O)[C@H](CCN)NC1=O ({Benzoyl(4-Ph)}-[Dab]T[dS][Dab][Dab][dL]I[Dab][Dab]L; lactam 4-C)							< 10%
